From patent US9232796B2, “Herbicidal compositions comprising 4-amino-3-chloro-5-fluoro-6-(4-chloro-2-fluoro-3-methoxyphenyl) pyridine-2-carboxylic acid or a derivative thereof and acetyl-CoA carboxylase (ACCase) inhibitors” (DOW AGROSCIENCES LLC, priority 2012, dated 2016) come the findings set out here.

In one assay the test system is LOLMU. Description: Example III postemergence foliar-applied, greenhouse, weeds common to row crops such as corn and soybeans. The assay is classed as in vivo, Lolium multiflorum Lam. An excerpt:
Seeds or nutlets of the desired test plant species were planted in a soil matrix prepared by mixing a loam or sandy loam soil (e.g., 28.6 percent silt, 18.8 percent clay, and 52.6 percent sand, with a pH of about 5.8 and an organic matter content of about 1.8 percent) and calcareous grit in an 80 to 20 ratio. The soil matrix was contained in plastic pots with a surface area of 84.6 square centimeters (cm^2) and a volume of 560 cubic centimeters (cm^3). When required to ensure good germination and healthy plants, a fungicide treatment and/or other chemical or physical treatment was applied. The plants were grown for 7-31 days (d) in a greenhouse with an approximate 15 hour (h) photoperiod which was maintained at about 23-29° C. during the day and 22-28° C. during the night. Nutrients (Peters Excel® 15-5-15 5-Ca 2-Mg) and water were added on a regular basis and supplemental lighting was provided with overhead metal halide 1000-Watt lamps as necessary. The plants were employed for testing when they reached the first, second, or third true leaf stage.
(§1) Treatment requirements were calculated based upon the rates being tested, the concentration of active ingredient or acid equivalent in the formulation, and a 12 mL application volume at a rate of 187 L/ha.
(§2) Treatments consisted of the acid or esters of 4-amino-3-chloro-5-fluoro-6-(4-chloro-2-fluoro-3-methoxy-phenyl)pyridine-2-carboxylic acid (Compound A), each formulated as an SC (suspension concentrate), and various herbicidal components alone and in combination.
Other herbicidal components were applied on an acid equivalent basis and included acetyl coA carboxylase (ACCase)-inhibiting herbicide (cyclohexanedione and aryloxyphenoxypropionate chemical classes) quizalofop-p-ethyl formulated as Assure® II.
All stock solutions and applications solutions were visually inspected for compound compatibility prior to application. Compound requirements are based upon a 12 mL application volume at a rate of 187 liters per hectare (L/ha). Formulated compounds were applied to the plant material with an overhead Mandel track sprayer equipped with 8002E nozzles calibrated to deliver 187 L/ha over an application area of 0.503 square meters (m^2) at a spray height of 18 to 20 inches (46 to 50 cm) above the average plant canopy height. Control plants were sprayed in the same manner with the solvent blank.
The treated plants and control plants were placed in a greenhouse as described above and watered by sub-irrigation to prevent wash-off of the test compounds. After approximately 2 weeks, the condition of the test plants as compared with that of the untreated plants was determined visually and scored on a scale of 0 to 100 percent where 0 corresponds to no injury or growth inhibition and 100 corresponds to complete kill.
(§3) Colby's equation was used to determine the herbicidal effects expected from the mixtures (Colby, S. R. 1967. Calculation of the synergistic and antagonistic response of herbicide combinations. Weeds 15:20-22.).
The following equation was used to calculate the expected activity of mixtures containing two active ingredients, A and B: Expected=A+B−(A×B/100)

Another assay concerns ECHCG. Description: Example I postemergence foliar-applied, greenhouse, direct seeded rice weeds. The assay is classed as in vivo, Echinochloa crusgalli (L.) Beauv.
Description: Seeds or nutlets of the desired test plant species were planted in a soil matrix prepared by mixing a loam or sandy loam soil (e.g., 28.6 percent silt, 18.8 percent clay, and 52.6 percent sand, with a pH of about 5.8 and an organic matter content of about 1.8 percent) and calcareous grit in an 80 to 20 ratio. The soil matrix was contained in plastic pots with a volume of 1 quart and a surface area of 83.6 square centimeters (cm^2). When required to ensure good germination and healthy plants, a fungicide treatment and/or other chemical or physical treatment was applied. The plants were grown for 8-22 days in a greenhouse with an approximate 14 hr. photoperiod which was maintained at about 29° C. during the day and 26° C. during the night. Nutrients (Peters Excel® 15-5-15 5-Ca 2-Mg and iron chelate) were applied in the irrigation solution as needed and water was added on a regular basis. Supplemental lighting was provided with overhead metal halide 1000-Watt lamps as necessary. The plants were employed for testing when they reached the first through fourth true leaf stage.
as §2
Other herbicidal components were applied on an acid equivalent (ae) or active ingredient (ai) basis and included acetyl coA carboxylase (ACCase)-inhibiting herbicides (cyclohexanedione and aryloxyphenoxypropionate chemical classes) cyhalofop-butyl formulated as Clincher® SF (285 gr ai/L EC), diclofop-methyl formulated as Hoelon® 3EC, fenoxaprop-p-ethyl+isoxadifen-ethyl formulated as RiceStar® HT (0.58 lb./gal EC), fenoxaprop-p-ethyl+mefenpyr diethyl formulated as Puma® IEC, metamifop formulated as Metamifop EC, haloxyfop-methyl formulated as Gallant Super®, fluazifop-p-butyl formulated as Fusilade® DX, quizalofop-p-ethyl formulated as Assure® II, profoxydim formulated as Aura® 20EC, clethodim applied as Intensity®, sethoxydim formulated as Poast®, and tralkoxydim formulated as Achieve®.
as §1
For treatments comprised of formulated compounds, measured amounts of compounds were placed individually in 25 mL glass vials and diluted in a volume of 1.25% (v/v) Agri-Dex® crop oil concentrated to obtain 12× stock solutions. […] Application solutions were prepared by adding an appropriate amount of each stock solution (e.g., 1 mL) and diluted to the appropriate final concentrations with the addition of 10 mL of an aqueous mixture of 1.25% (v/v) crop oil concentrate so that the final spray solutions contained 1.25+/−0.05% (v/v) crop oil concentrate.
All stock solutions and applications solutions were visually inspected for compound compatibility prior to application. Spray solutions were applied to the plant material with an overhead Mandel track sprayer equipped with a 8002E nozzles calibrated to deliver 187 L/ha over an application area of 0.503 m^2 at a spray height of 18 to 20 inches (46 to 50 cm) above average plant canopy height. Control plants were sprayed in the same manner with the solvent blank.
The treated plants and control plants were placed in a greenhouse as described above and watered by sub-irrigation to prevent wash-off of the test compounds. After approximately 3 weeks, the condition of the test plants as compared with that of the untreated plants was determined visually and scored on a scale of 0 to 100 percent where 0 corresponds to no injury or growth inhibition and 100 corresponds to complete kill. […]

The test system of another assay is IPOHE. The description is as above. The format is in vivo, Ipomoea hederacea Jacq. An outline of the steps: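 Greenhouse plants in loam/sandy loam–grit soil (80:20), grown 8-22 days (29/26 °C, 14 hr photoperiod) to first–fourth true leaf, sprayed postemergence at 187 L/ha with 1.25% (v/v) crop oil concentrate, alone or in mixtures. Visual injury scored 0–100% versus untreated plants after about 3 weeks; mixture expectations by Colby's equation.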

Another assay deals with CYPIR. Description: Example V (second) postemergence foliar-applied ternary mixtures, greenhouse, direct seeded rice weeds. The assay is classed as in vivo, Cyperus iria L. The method, then:
The treated plants and control plants were placed in a greenhouse as described above and watered by sub-irrigation to prevent wash-off of the test compounds. After approximately 3 weeks, the condition of the test plants as compared with that of the untreated plants was determined visually and scored on a scale of 0 to 100 percent where 0 corresponds to no injury or growth inhibition and 100 corresponds to complete kill.
as §3
The following equation was used to calculate the expected activity of mixtures containing three active ingredients, A, B, and C: Expected=A+B+C−((A×B+A×C+B×C)/100)+(A×B×C/10000)

Values joined by “and” are separate entries in the source; they are usually repeats but may differ in a detail not shown here. Equal values may be shown once.

With `CCOC(=O)[C@@H](C)Oc1ccc(Oc2cnc3cc(Cl)ccc3n2)cc1` [Quizalofop-p-ethyl, ethyl(2R)-2-[4-[(6-chloro-2-quinoxalinyl)oxy]phenoxy]propanoate, reference compound], the figures for the “Visual Weed Control (%) - 14 DAA LOLMU Obs” value in the assay with LOLMU (Quizalofop-p-ethyl 3.56 gae/ha) and with LOLMU (Quizalofop-p-ethyl 7.125 gae/ha) were 0% and 60%, respectively. Further, the “Visual Weed Control (%) - 22 DAA ECHCG Obs” value stood at 20% in the assay on ECHCG (3.75 gai/ha) and 30% in the assay on ECHCG (7.5 gai/ha). Also, the “Visual Weed Control (%) - 22 DAA IPOHE Obs” value with IPOHE (1.88 gai/ha), with IPOHE (3.75 gai/ha) and with IPOHE (7.5 gai/ha) was 0% throughout. Moreover, the “Visual Weed Control (%) - 20 DAA IPOHE Obs” value with IPOHE (15 gai/ha) and in the assay with IPOHE (30 gai/ha) was 0% throughout.
With `CCCCOC(=O)[C@@H](C)Oc1ccc(Oc2ccc(C#N)cc2F)cc1` [Cyhalofop-butyl, butyl(2R)-2-[4-(4-cyano-2-fluorophenoxy)phenoxy]propanoate, reference compound], the “Visual Weed Control (%) - 20 DAA IPOHE Obs” value with IPOHE (280 gai/ha) is 0%. The “Visual Weed Control (%) - 21 DAA CYPIR Obs” value with CYPIR (35 gai/ha) is recorded as 0%.
For `C[C@@H](Oc1ccc(Oc2nc3ccc(Cl)cc3o2)cc1)C(=O)N(C)c1ccccc1F` [Metamifop, (2R)-2-[4-[(6-chloro-2-benzoxazolyl)oxy]phenoxy]-N-(2-fluorophenyl)-N-methylpropanamide], the “Visual Weed Control (%) - 22 DAA ECHCG Obs” value with ECHCG (9.38 gai/ha) is on record as 0%; with ECHCG (18.75 gai/ha), 40%; in the assay with ECHCG (37.5 gai/ha), 70%. In addition, the “Visual Weed Control (%) - 22 DAA IPOHE Obs” value in the assay with IPOHE (9.38 gai/ha), in the assay with IPOHE (18.75 gai/ha) and with IPOHE (37.5 gai/ha) was 0% in each case. The “Visual Weed Control (%) - 24 DAA IPOHE Obs” value in the assay with IPOHE (150 gai/ha) is 0%.
`CCC/C(=N\OCC(C)Oc1ccc(Cl)cc1)C1=C(O)CC(C2CCCSC2)CC1=O` (centres unmarked) [Profoxydim, 2-[1-[[2-(4-chlorophenoxy)propoxy]imino]butyl]-3-hydroxy-5-(tetrahydro-2H-thiopyran-3-yl)-2-cyclohexen-1-one, reference compound]: the “Visual Weed Control (%) - 22 DAA CYPIR Obs” value in the assay on CYPIR (3.12 gai/ha) and in the assay on CYPIR (6.25 gai/ha) was 0% each time.
`COc1c(Cl)ccc(-c2nc(C(=O)O)c(Cl)c(N)c2F)c1F` [Compound A Acid, 4-amino-3-chloro-6-(4-chloro-2-fluoro-3-methoxyphenyl)-5-fluoropyridine-2-carboxylic acid]: the “Visual Weed Control (%) - 14 DAA LOLMU Obs” value with LOLMU (Compound A Acid 3.75 gae/ha) came to 0%; in the assay on LOLMU (Compound A Acid 7.5 gae/ha), 10%; in the assay with LOLMU (Compound A Acid 15 gae/ha), 10%. The results for the “Visual Weed Control (%) - 19 DAA IPOHE Obs” value in the assay with IPOHE (4.38 gae/ha), in the assay with IPOHE (8.75 gae/ha) and in the assay on IPOHE (17.5 gae/ha) were 0%, 10% and 35%, respectively. Besides, the “Visual Weed Control (%) - 20 DAA IPOHE Obs” value was 10% and 0% with IPOHE (4.38 gae/ha); 30% and 20% in the assay with IPOHE (8.75 gae/ha); 40% in the assay on IPOHE (17.5 gae/ha); 15% in the assay on IPOHE (19.4 gae/ha). The “Visual Weed Control (%) - 24 DAA IPOHE Obs” value in the assay on IPOHE (4.38 gae/ha) came out at 10%; in the assay with IPOHE (8.75 gae/ha) it was 10%; in the assay on IPOHE (17.5 gae/ha), 30%.
Regarding `COc1c(Cl)ccc(-c2nc(C(=O)OCc3ccccc3)c(Cl)c(N)c2F)c1F` [Compound A Benzyl Ester, benzyl ester of 4-amino-3-chloro-5-fluoro-6-(4-chloro-2-fluoro-3-methoxy-phenyl)pyridine-2-carboxylic acid], the “Visual Weed Control (%) - 14 DAA LOLMU Obs” value was found to be 0% with LOLMU (Compound A Benzyl Ester 3.75 gae/ha), 10% with LOLMU (Compound A Benzyl Ester 7.5 gae/ha) and 10% in the assay with LOLMU (Compound A Benzyl Ester 15 gae/ha). In addition, the results for the “Visual Weed Control (%) - 22 DAA ECHCG Obs” value in the assay with ECHCG (8 gae/ha), in the assay on ECHCG (16 gae/ha) and with ECHCG (32 gae/ha) were 35%, 65% and 80%, respectively. For the same molecule, the “Visual Weed Control (%) - 19 DAA IPOHE Obs” value in the assay on IPOHE (4.38 gae/ha) and with IPOHE (8.75 gae/ha) was 0% each time. Moreover, the “Visual Weed Control (%) - 21 DAA IPOHE Obs” value in the assay with IPOHE (16 gae/ha) is 10%; in the assay on IPOHE (32 gae/ha), 25%. Moreover, the “Visual Weed Control (%) - 22 DAA IPOHE Obs” value in the assay on IPOHE (32 gae/ha) is 45%. Moreover, the “Visual Weed Control (%) - 21 DAA CYPIR Obs” value with CYPIR (8 gae/ha) is listed as 53%; in the assay on CYPIR (16 gae/ha) it was 95%. Besides, the “Visual Weed Control (%) - 22 DAA CYPIR Obs” value with CYPIR (8 gae/ha) was found to be 37%.
